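In this assay, cells in 96-well plates receive the compound at five concentrations for 48 hours. Endpoints are linearly interpolated between the surrounding concentrations. Here, GI50 denotes the concentration required for 50% inhibition of growth. TGI is the concentration that stops growth completely.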
Legend:
Assay in all cases: NCI tumour cell line growth inhibition, 48 h
HCT-116 colon = system: HCT-116 colon
K-562 leukemia = system: K-562 leukemia
SF-268 CNS = system: SF-268 CNS
NCI-H460 lung = system: NCI-H460 lung
OVCAR-8 ovarian = system: OVCAR-8 ovarian
BT-549 breast = system: BT-549 breast
UACC-62 melanoma = system: UACC-62 melanoma
SK-MEL-28 melanoma = system: SK-MEL-28 melanoma
EKVX NSCLC = system: EKVX NSCLC
HT29 colon = system: HT29 colon
SN12C renal = system: SN12C renal
OVCAR-4 ovarian = system: OVCAR-4 ovarian
HOP-92 NSCLC = system: HOP-92 NSCLC
UACC-257 melanoma = system: UACC-257 melanoma
HCT-15 colon = system: HCT-15 colon
M14 melanoma = system: M14 melanoma
IGROV1 ovarian = system: IGROV1 ovarian
NCI/ADR-RES ovarian = system: NCI/ADR-RES ovarian
OVCAR-5 ovarian = system: OVCAR-5 ovarian
A498 renal = system: A498 renal
SF-295 CNS = system: SF-295 CNS
MDA-MB-435 = system: MDA-MB-435
MDA-N = system: MDA-N
RPMI-8226 leukemia = system: RPMI-8226 leukemia
SR leukemia = system: SR leukemia
SF-539 CNS = system: SF-539 CNS
CAKI-1 renal = system: CAKI-1 renal
SK-MEL-2 melanoma = system: SK-MEL-2 melanoma
PC-3 prostate = system: PC-3 prostate
SNB-19 CNS = system: SNB-19 CNS
MOLT-4 leukemia = system: MOLT-4 leukemia
HOP-62 NSCLC = system: HOP-62 NSCLC
SW-620 colon = system: SW-620 colon
OVCAR-3 ovarian = system: OVCAR-3 ovarian
HS 578T breast = system: HS 578T breast
SK-OV-3 ovarian = system: SK-OV-3 ovarian
ACHN renal = system: ACHN renal
CCRF-CEM leukemia = system: CCRF-CEM leukemia
A549 NSCLC = system: A549 NSCLC
COLO 205 colon = system: COLO 205 colon
SK-MEL-5 melanoma = system: SK-MEL-5 melanoma
UO-31 renal = system: UO-31 renal
TK-10 renal = system: TK-10 renal
MALME-3M melanoma = system: MALME-3M melanoma
MCF7 breast = system: MCF7 breast
NCI-H23 lung = system: NCI-H23 lung
HL-60(TB) leukemia = system: HL-60(TB) leukemia
HCC-2998 colon = system: HCC-2998 colon
U251 CNS = system: U251 CNS
786-0 renal = system: 786-0 renal
NCI-H226 lung = system: NCI-H226 lung
NCI-H522 lung = system: NCI-H522 lung
MDA-MB-231 breast = system: MDA-MB-231 breast
T-47D breast = system: T-47D breast
LOX IMVI melanoma = system: LOX IMVI melanoma
RXF 393 renal = system: RXF 393 renal
KM12 colon = system: KM12 colon
DU-145 prostate = system: DU-145 prostate
SNB-75 CNS = system: SNB-75 CNS

O=C(C(=C(I)I)c1ccccc1)c1ccccc1
TGI (HCT-116 colon): 36.9 µM | TGI (K-562 leukemia): 21.4 µM | TGI (SF-268 CNS): > 100 µM | TGI (NCI-H460 lung): > 100 µM | TGI (OVCAR-8 ovarian): > 100 µM | TGI (BT-549 breast): > 100 µM | TGI (UACC-62 melanoma): 53.4 µM | TGI (SK-MEL-28 melanoma): 94.7 µM | TGI (EKVX NSCLC): > 100 µM | TGI (HT29 colon): > 100 µM | TGI (SN12C renal): > 100 µM | TGI (OVCAR-4 ovarian): > 100 µM | TGI (HOP-92 NSCLC): 82.9 µM | TGI (UACC-257 melanoma): > 100 µM | TGI (HCT-15 colon): > 100 µM | TGI (M14 melanoma): 73.3 µM | TGI (IGROV1 ovarian): 44.4 µM | TGI (NCI/ADR-RES ovarian): > 100 µM | TGI (OVCAR-5 ovarian): > 100 µM | TGI (A498 renal): 28.6 µM | TGI (SF-295 CNS): 65.5 µM | TGI (MDA-MB-435): > 100 µM | TGI (MDA-N): 62.1 µM | TGI (RPMI-8226 leukemia): 45.5 µM | TGI (SR leukemia): 93.6 µM | TGI (SF-539 CNS): 52.6 µM | TGI (CAKI-1 renal): > 100 µM | TGI (SK-MEL-2 melanoma): 38 µM | TGI (PC-3 prostate): > 100 µM | TGI (SNB-19 CNS): > 100 µM | TGI (MOLT-4 leukemia): 58.1 µM | TGI (HOP-62 NSCLC): 37.7 µM | TGI (SW-620 colon): > 100 µM | TGI (OVCAR-3 ovarian): 42.3 µM | TGI (HS 578T breast): 43.2 µM | TGI (SK-OV-3 ovarian): > 100 µM | TGI (ACHN renal): > 100 µM | TGI (CCRF-CEM leukemia): 51.7 µM | TGI (A549 NSCLC): > 100 µM | TGI (COLO 205 colon): > 100 µM | TGI (SK-MEL-5 melanoma): 30.9 µM | TGI (UO-31 renal): 58.8 µM | TGI (TK-10 renal): 83.7 µM | TGI (MALME-3M melanoma): 46.8 µM | TGI (MCF7 breast): > 100 µM | TGI (NCI-H23 lung): 88.8 µM | TGI (HL-60(TB) leukemia): 52.3 µM

CS(=O)(=O)N(c1cc(-c2ccc3ncnc(Nc4ccc(F)c(Cl)c4)c3c2)cnc1Cl)S(C)(=O)=O
GI50 (HCT-116 colon): 1.68 µM | TGI (HCT-116 colon): 6.7 µM | GI50 (K-562 leukemia): 2.45 µM | TGI (K-562 leukemia): > 100 µM | GI50 (SF-268 CNS): 0.868 µM | TGI (SF-268 CNS): 7.61 µM | GI50 (NCI-H460 lung): 1.76 µM | TGI (NCI-H460 lung): 13.5 µM | GI50 (OVCAR-8 ovarian): 2.17 µM | TGI (OVCAR-8 ovarian): 15.5 µM | GI50 (BT-549 breast): 0.638 µM | TGI (BT-549 breast): 5.06 µM | GI50 (UACC-62 melanoma): 0.49 µM | TGI (UACC-62 melanoma): 2.93 µM | GI50 (SK-MEL-28 melanoma): 0.54 µM | TGI (SK-MEL-28 melanoma): 4.93 µM | GI50 (EKVX NSCLC): 0.649 µM | TGI (EKVX NSCLC): 5.19 µM | GI50 (HCC-2998 colon): 1.58 µM | TGI (HCC-2998 colon): 8.43 µM | GI50 (HT29 colon): 1.07 µM | TGI (HT29 colon): 13.9 µM | GI50 (SN12C renal): 0.964 µM | TGI (SN12C renal): > 32.6 µM | GI50 (OVCAR-4 ovarian): 2.33 µM | TGI (OVCAR-4 ovarian): 19.4 µM | GI50 (HOP-92 NSCLC): 0.191 µM | TGI (HOP-92 NSCLC): 1.73 µM | GI50 (UACC-257 melanoma): 1.11 µM | TGI (UACC-257 melanoma): 14.5 µM | GI50 (HCT-15 colon): 0.945 µM | TGI (HCT-15 colon): 13.9 µM | GI50 (M14 melanoma): 1.17 µM | TGI (M14 melanoma): 11.9 µM | GI50 (IGROV1 ovarian): 0.196 µM | TGI (IGROV1 ovarian): 0.786 µM | GI50 (NCI/ADR-RES ovarian): 2.54 µM | TGI (NCI/ADR-RES ovarian): 20.9 µM | GI50 (OVCAR-5 ovarian): 0.795 µM | TGI (OVCAR-5 ovarian): 10.2 µM | GI50 (A498 renal): 0.342 µM | TGI (A498 renal): 1.56 µM | GI50 (SF-295 CNS): 1.25 µM | TGI (SF-295 CNS): 4.92 µM | GI50 (MDA-MB-435): 1.83 µM | TGI (MDA-MB-435): 17.2 µM | GI50 (RPMI-8226 leukemia): 0.826 µM | TGI (RPMI-8226 leukemia): 3.98 µM | GI50 (SR leukemia): 4.35 µM | TGI (SR leukemia): > 100 µM | GI50 (U251 CNS): 1.15 µM | TGI (U251 CNS): 13.4 µM | GI50 (SF-539 CNS): 1.05 µM | TGI (SF-539 CNS): 4.83 µM | GI50 (786-0 renal): 1.58 µM | TGI (786-0 renal): > 26.4 µM | GI50 (CAKI-1 renal): 0.553 µM | TGI (CAKI-1 renal): 3.98 µM | GI50 (SK-MEL-2 melanoma): 1.16 µM | TGI (SK-MEL-2 melanoma): 4.01 µM | GI50 (NCI-H226 lung): 1.9 µM | TGI (NCI-H226 lung): 24.3 µM | GI50 (NCI-H522 lung): 1.57 µM | TGI (NCI-H522 lung): 11.1 µM | GI50 (PC-3 prostate): 1.1 µM | TGI (PC-3 prostate): 7.9 µM | GI50 (MDA-MB-231 breast): 1.75 µM | TGI (MDA-MB-231 breast): 9.65 µM | GI50 (SNB-19 CNS): 0.897 µM | TGI (SNB-19 CNS): 9.9 µM | GI50 (MOLT-4 leukemia): 1.18 µM | TGI (MOLT-4 leukemia): 7.74 µM | GI50 (HOP-62 NSCLC): 0.957 µM | TGI (HOP-62 NSCLC): 14.7 µM | GI50 (T-47D breast): 0.13 µM | TGI (T-47D breast): 1.8 µM | GI50 (SW-620 colon): 1.71 µM | TGI (SW-620 colon): > 38.4 µM | GI50 (LOX IMVI melanoma): 0.879 µM | TGI (LOX IMVI melanoma): 4.73 µM | GI50 (OVCAR-3 ovarian): 0.728 µM | TGI (OVCAR-3 ovarian): 4.24 µM | GI50 (RXF 393 renal): 0.711 µM | TGI (RXF 393 renal): 3.4 µM | GI50 (HS 578T breast): 0.218 µM | TGI (HS 578T breast): 2.61 µM | GI50 (SK-OV-3 ovarian): 0.6 µM | TGI (SK-OV-3 ovarian): 4.31 µM | GI50 (ACHN renal): 1.11 µM | TGI (ACHN renal): 12.4 µM | GI50 (KM12 colon): 2.43 µM | TGI (KM12 colon): 9.81 µM | GI50 (DU-145 prostate): 1.18 µM | TGI (DU-145 prostate): 24.9 µM | GI50 (CCRF-CEM leukemia): 0.527 µM | TGI (CCRF-CEM leukemia): > 100 µM | GI50 (A549 NSCLC): 1.98 µM | TGI (A549 NSCLC): 11.2 µM | GI50 (COLO 205 colon): 1.32 µM | TGI (COLO 205 colon): 5.93 µM | GI50 (SK-MEL-5 melanoma): 0.978 µM | TGI (SK-MEL-5 melanoma): 2.42 µM | GI50 (UO-31 renal): 0.27 µM | TGI (UO-31 renal): 2.99 µM | GI50 (TK-10 renal): 0.44 µM | TGI (TK-10 renal): 3.73 µM | GI50 (MALME-3M melanoma): 0.267 µM | TGI (MALME-3M melanoma): 2.12 µM | GI50 (MCF7 breast): 0.246 µM | TGI (MCF7 breast): 3.58 µM | GI50 (NCI-H23 lung): 0.861 µM | TGI (NCI-H23 lung): 5.15 µM | GI50 (SNB-75 CNS): 0.0739 µM | TGI (SNB-75 CNS): 0.698 µM | GI50 (HL-60(TB) leukemia): 0.49 µM | TGI (HL-60(TB) leukemia): 5.35 µM
